{"source": "ChEMBL document CHEMBL5726098", "about": "“Arylquinazolines” (2019)", "molecular_target": "DNA-dependent protein kinase catalytic subunit (Homo sapiens, UniProt P78527)", "sequence (P78527 whole entry)": "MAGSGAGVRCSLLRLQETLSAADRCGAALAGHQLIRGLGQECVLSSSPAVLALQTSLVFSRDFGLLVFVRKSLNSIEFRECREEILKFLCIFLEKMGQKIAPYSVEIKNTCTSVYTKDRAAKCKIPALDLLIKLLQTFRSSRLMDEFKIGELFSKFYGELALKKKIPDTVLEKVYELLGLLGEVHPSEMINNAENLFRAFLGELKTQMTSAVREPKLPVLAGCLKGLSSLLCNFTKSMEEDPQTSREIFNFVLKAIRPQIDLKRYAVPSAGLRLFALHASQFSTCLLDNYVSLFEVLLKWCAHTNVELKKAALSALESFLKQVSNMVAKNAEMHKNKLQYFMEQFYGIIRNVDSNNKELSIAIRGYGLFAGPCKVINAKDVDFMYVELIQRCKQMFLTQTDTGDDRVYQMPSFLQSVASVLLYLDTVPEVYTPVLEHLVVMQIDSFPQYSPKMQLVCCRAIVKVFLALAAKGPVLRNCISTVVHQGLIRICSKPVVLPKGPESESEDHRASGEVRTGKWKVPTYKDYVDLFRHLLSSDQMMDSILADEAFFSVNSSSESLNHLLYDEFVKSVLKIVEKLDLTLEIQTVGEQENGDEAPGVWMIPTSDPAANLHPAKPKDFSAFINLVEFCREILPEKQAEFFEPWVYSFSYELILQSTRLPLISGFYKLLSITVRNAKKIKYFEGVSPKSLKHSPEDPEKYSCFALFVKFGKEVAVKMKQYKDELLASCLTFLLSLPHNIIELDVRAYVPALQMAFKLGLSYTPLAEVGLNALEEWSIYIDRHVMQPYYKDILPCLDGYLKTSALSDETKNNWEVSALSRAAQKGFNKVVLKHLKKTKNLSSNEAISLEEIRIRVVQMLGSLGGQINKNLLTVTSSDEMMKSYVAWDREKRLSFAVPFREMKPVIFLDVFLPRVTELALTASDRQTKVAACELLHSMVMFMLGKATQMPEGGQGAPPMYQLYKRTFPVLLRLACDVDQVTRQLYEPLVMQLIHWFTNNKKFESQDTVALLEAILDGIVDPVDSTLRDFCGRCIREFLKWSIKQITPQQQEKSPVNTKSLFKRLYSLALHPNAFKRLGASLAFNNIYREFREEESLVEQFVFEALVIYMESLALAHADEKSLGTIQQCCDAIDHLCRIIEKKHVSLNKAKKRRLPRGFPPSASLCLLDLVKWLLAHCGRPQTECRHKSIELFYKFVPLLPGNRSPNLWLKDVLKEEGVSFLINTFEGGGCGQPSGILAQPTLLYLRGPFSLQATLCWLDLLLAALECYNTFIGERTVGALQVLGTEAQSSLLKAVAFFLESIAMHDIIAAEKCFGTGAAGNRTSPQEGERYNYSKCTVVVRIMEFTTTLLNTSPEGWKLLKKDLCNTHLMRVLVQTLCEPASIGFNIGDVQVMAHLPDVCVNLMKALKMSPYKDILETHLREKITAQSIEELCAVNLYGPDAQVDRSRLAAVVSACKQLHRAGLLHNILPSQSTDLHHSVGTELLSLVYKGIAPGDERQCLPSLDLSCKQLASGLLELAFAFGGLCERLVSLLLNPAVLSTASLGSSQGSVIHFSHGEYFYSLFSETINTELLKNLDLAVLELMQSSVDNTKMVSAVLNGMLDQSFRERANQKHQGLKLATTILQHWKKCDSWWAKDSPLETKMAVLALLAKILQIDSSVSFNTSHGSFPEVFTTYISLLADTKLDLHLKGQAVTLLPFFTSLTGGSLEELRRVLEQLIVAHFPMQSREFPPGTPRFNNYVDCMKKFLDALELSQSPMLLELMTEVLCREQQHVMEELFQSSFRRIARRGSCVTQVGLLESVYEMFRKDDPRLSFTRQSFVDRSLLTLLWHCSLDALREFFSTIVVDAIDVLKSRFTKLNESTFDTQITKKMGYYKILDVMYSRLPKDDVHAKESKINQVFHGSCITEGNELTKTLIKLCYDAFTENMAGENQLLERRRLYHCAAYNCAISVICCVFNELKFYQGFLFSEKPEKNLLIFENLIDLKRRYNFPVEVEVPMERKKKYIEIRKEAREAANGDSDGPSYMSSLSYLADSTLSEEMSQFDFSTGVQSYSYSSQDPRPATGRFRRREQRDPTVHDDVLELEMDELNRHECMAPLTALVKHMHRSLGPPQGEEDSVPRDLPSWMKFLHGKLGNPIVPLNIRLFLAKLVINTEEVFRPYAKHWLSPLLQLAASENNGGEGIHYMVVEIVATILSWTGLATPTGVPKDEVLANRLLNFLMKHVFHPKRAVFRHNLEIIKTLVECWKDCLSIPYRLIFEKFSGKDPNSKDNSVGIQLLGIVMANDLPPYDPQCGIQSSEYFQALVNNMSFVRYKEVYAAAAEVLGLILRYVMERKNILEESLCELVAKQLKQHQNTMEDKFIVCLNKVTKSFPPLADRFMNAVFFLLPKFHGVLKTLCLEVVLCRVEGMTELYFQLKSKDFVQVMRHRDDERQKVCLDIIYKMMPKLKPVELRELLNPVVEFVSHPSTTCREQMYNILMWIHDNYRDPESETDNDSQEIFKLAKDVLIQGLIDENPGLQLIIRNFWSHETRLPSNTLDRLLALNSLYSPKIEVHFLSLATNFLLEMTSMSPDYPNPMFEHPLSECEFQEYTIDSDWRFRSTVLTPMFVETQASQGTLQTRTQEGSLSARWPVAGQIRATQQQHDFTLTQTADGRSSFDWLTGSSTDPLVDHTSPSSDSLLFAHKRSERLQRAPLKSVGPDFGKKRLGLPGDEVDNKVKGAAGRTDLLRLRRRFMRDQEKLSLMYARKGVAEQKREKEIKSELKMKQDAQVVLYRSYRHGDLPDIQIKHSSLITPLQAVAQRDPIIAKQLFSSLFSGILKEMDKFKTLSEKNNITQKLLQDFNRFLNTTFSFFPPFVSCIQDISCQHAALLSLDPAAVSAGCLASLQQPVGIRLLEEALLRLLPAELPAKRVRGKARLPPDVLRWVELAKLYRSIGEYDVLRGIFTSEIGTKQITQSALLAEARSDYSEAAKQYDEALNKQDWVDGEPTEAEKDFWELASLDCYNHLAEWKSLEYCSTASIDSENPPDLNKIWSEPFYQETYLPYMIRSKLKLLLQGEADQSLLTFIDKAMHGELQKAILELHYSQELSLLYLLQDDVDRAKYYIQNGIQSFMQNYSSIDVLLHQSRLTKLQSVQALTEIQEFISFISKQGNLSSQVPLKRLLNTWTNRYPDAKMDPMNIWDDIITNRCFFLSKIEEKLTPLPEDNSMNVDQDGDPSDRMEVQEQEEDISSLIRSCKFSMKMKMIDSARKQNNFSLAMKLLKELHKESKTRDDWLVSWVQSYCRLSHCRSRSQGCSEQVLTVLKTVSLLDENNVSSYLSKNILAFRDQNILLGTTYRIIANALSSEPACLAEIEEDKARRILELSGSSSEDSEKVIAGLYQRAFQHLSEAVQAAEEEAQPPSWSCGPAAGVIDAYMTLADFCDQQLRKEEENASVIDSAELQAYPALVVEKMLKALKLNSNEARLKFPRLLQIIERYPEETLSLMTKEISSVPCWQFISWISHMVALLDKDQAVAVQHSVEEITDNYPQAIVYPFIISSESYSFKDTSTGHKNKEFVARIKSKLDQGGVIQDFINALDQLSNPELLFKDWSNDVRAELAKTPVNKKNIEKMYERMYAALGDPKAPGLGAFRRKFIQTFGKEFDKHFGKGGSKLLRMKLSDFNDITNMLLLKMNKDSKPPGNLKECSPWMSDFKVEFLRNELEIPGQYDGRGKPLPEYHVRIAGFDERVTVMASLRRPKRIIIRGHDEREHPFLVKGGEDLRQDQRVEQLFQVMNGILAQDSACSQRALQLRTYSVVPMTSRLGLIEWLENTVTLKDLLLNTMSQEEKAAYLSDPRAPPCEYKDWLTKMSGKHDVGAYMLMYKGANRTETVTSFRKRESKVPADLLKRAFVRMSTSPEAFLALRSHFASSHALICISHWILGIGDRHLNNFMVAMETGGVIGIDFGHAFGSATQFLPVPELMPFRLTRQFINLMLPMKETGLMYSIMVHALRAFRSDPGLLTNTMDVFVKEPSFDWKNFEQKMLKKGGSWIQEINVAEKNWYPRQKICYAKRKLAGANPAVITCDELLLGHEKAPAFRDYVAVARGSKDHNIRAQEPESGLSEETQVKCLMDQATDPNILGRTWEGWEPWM", "assay": "DNA-PK Assay (Biochemical): The kinase assay was carried out in streptavidin-coated […] microtitre flashplates. […] The reaction was stopped using 50 μl/well of 200 mM EDTA. After incubation for a further 30 min at room temperature, the liquid was removed. Each well was washed three times with 100 μl of 0.9% saline solution. A nonspecific reaction (blank value) was determined using 10 μM of an innate kinase inhibitor. The radioactivity measurement was carried out using a TopCount. IC50 values were calculated in RS1.", "note": "pIC50: −log10 of the molar value."}
{"smiles": "NC(=O)C(c1cc(-c2ncnc3cc(N4CCOCC4)ccc23)c(F)cc1Cl)c1ncnn2cccc12", "note": "(configuration not stated)", "values": [{"measurement": "pIC50", "result": "< 7.52"}]}
{"smiles": "OCc1csc(C(O)c2cc(-c3ncnc4cc(N5C6CCC5COC6)ccc34)c(F)cc2Cl)n1", "note": "(configuration not stated)", "values": [{"measurement": "pIC50", "result": "< 7.52"}]}
